The target in this assay is T1, β2GPI (Homo sapiens, UniProt P02749).
T1 sequence (P02749 20-345): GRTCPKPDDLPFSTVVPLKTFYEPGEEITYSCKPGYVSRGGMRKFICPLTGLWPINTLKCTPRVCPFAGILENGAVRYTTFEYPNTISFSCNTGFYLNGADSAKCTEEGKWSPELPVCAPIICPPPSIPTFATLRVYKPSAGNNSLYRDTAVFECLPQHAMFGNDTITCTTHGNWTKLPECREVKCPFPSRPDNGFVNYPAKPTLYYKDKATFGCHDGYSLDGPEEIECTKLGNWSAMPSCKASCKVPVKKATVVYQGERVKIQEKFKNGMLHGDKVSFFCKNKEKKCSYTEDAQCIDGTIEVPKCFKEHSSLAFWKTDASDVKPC
In words: Surface plasmon resonance. The settings on record: inferred from extremely fast dissociation; 0.005% PBST pH 7.4, 25°C. In kind it is binding.

Turning to KVWTIPRGGGS, the “Affinity towards β2GPI indicated by dissociation (SPR)” value is recorded as “low affinity towards β2GPI”.

These data come from article PMC4975316 (EJIFCC, 2011).
